# In patent US20040005291A1, “Methods for regulating co-stimulatory molecule expression with reactive oxygen” (priority 2001, published 2004):
# Experiments:
# Fas and B7 = Fas and B7 levels in cells in the presence of 2-deoxyglucose; assay type: cell-based; details: cells where glucose cannot bind to its receptor
# Experimental: […] Cells were then harvested, stained with fluorescent labeled anti-Fas, or with isotype controls as indicated. […] Data were analyzed using Becton Dickinson CellQuest software.
# B7.2 on U937 cells = details: 0.25 mM H202, 48 hours
# Experimental: (§1) The cells were then exposed to 200 mW of low frequency microwaves for 30 minutes, 1 hour, or 3 hours. Cells were then stained with DCF-DA (Molecular Probes, Inc. Eugene, Oreg.) as an indicator of relative levels of H202. Cells were also stained with fluorescent labeled antibodies to human B7.2 (Pharmingen, Inc.), versus fluorescent labeled, isotype matched control antibodies, upper panels, left and right, respectively. Indicated levels represent the ratio of specific B7.2 stain over the fluorescently labeled isotype control for each condition. Replicate samples, microwaved for the indicated time periods, were subsequently cultured for an additional 21 hours and stained for H202 and B7.2, as indicated, lower panels. Cells were analyzed flow cytometrically using a Coulter Excel Flow Cytometer. Data were analyzed using Becton Dickinson CellQuest software.
# (§2) Methods: Human myelocyte cells U937, HL60, PC12, and PC12Trk cells were cultured in the presence of subcytotoxic doses (0.25 mM) of H202 for 48 hours, harvested and stained with isotype controls or fluorescent labeled anti-B7.2 as described in Example 1. Cells were analyzed flow cytometrically using a Coulter Excel Flow Cytometer. Data were analyzed using Becton Dickinson CellQuest software.
# [1] = test system: B7.2 on PC12 neural cell line; details: PC12 cells, 0.25 mM H202, 48 hours
# Experimental: as §1, §2
# [2] = test system: B7.2 on PC12Trk neural cell line; details: PC12Trk cells, 0.25 mM H202, 48 hours
# Experimental: as §1, §2
# B7.2 on HL60 cells = details: 0.25 mM H202, 48 hours
# Experimental: as §1, §2
# B7 on MCF7 cells = details: H2O2 at subcytotoxic levels
# Text: We added H2O2 (at subcytotoxic levels) directly to cells (MCF7, HL60, U937, and neural cells PC12 and PC12Trk^15) in culture to see if this caused changes in B7 expression.
# [3] = test system: B7.1 on keratinocyte cell line; details: mouse keratinocyte cell line, 0.25 mM H2O2, 12 or 24 hours
# Experimental: (§3) A mouse keratinocyte cell line was incubated with or without 0.25 mM Hydrogen Peroxide (H2O2) for 12 or 24 hours. Then the level of B7.1 and Fas were evaluated. The data is attached as FIGS. 3A and 3B.
# [4] = test system: Fas on keratinocyte cell line; details: mouse keratinocyte cell line, 0.25 mM H2O2, 12 or 24 hours
# Experimental: as §3
# [5] = test system: reactive oxygen in neural stem cells; details: DCF-DA stain, FIG. 4
# Experimental: FIG. 4 is a graph depicting the effects of ethanol in neural stem cells. The cells were stained with DCF-DA.
# Methods: Neural stem cells were treated as described above.
# [6] = test system: co-stimulatory molecules in neural stem cells
# Fas on HL60 cells = experiment: Cell surface Fas expression, flow cytometry with anti-Fas; assay type: cell-based
# Experimental: Methods: HL60 cells were incubated with insulin or under in conditions of low glucose overnight. Cells were then harvested, stained with fluorescent labeled anti-Fas, or with isotype controls as indicated. […] Data were analyzed using Becton Dickinson CellQuest software.
compound,measurement,setting,value
O=CC[C@@H](O)[C@H](O)[C@H](O)CO [2-deoxyglucose],levels of these molecules (Fas and B7),Fas and B7,substantial reductions
"OO [H2O2, Hydrogen Peroxide]",cell surface expression of B7.2,B7.2 on U937 cells,increased cell surface expression of B7.2
same,cell surface expression of B7.2,[1],increased cell surface expression of B7.2
same,cell surface expression of B7.2,[2],increased cell surface expression of B7.2
same,cell surface expression of B7.2,B7.2 on HL60 cells,increased cell surface expression of B7.2
same,B7 expression,B7 on MCF7 cells,increase in B7
same,level of expression of B7.1,[3],increases
same,level of expression of Fas,[4],increases
"CCO [alcohol, ethanol]",reactive oxygen,[5],increase reactive oxygen
same,induction of co-stimulatory molecules,[6],increased induction of co-stimulatory molecules
insulin,cell surface Fas expression,Fas on HL60 cells; HL60 cells incubated with insulin overnight,loss of cell surface Fas expression
same,reduction of levels of Fas,Fas on HL60 cells; addition of insulin to cells in culture,ten-fold
